Experimental findings from patent US10000500B2 (PROMEGA CORPORATION, priority 2016, dated 2018) are described below.

NANOLUC® Luciferase, sequence (Q9GV45 28-196 with tags or gaps with the stated changes limits assumed): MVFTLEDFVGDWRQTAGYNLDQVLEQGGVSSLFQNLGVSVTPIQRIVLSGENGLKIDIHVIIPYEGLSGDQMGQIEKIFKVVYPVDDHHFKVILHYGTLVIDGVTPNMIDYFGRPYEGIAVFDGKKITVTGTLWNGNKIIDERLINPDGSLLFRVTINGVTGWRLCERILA

For the test, the target named is NANOLUC® Luciferase (Oplophorus gracilirostris, UniProt Q9GV45, A31E/A60N/A81I/F95D/I117V/K70R/L54V/L99Q/M102K/N193R/P142E/Q151K/Q38R/Q45L/V71I/Y165I). Nature of the test: Luminescence assay with purified NANOLUC luciferase (Example 7). Particulars: bioluminescence with NANOLUC luciferase. In kind it is biochemical. Here is the method:
Each compound to be screened was dissolved in DMSO (5 mM) and then further diluted to 100 uM in NANO-GLO® Luciferase Assay Buffer. Each diluted substrate was then combined in equal volumes with purified NANOLUC® Luciferase diluted into CO2 independent media+10% FBS. Initial light output for each substrate was measured in a GLOMAXI-Multi+luminometer three minutes after substrate addition and then at five minute intervals as a means to determine signal half-life.
The synthesized coelenterazine analogues (compounds of formula (I) and (II)) were evaluated for their suitability as luciferase substrates. NANOLUC® luciferase was employed for the screening because it is a small (19 kDa), stable, and particularly bright enzyme.
Regarding `Nc1ccc(-c2cn3c(=O)c(Cc4ccco4)nc-3c(-c3ccnc(Cl)c3)[nH]2)cc1`, the “λmax, nm” value was found to be 571 nm.

For `O=c1c(Cc2ccco2)nc2c(-c3ccco3)[nH]c(-c3ccco3)cn1-2` [AS-175, 6,8-di(furan-2-yl)-2-(furan-2-ylmethyl)imidazo[1,2-a]pyrazin-3(7H)-one], the “λmax, nm” value is on record as 514 nm.

In the case of `O=c1c(Cc2ccco2)nc2c(-c3cccs3)[nH]c(-c3cccs3)cn1-2` [AS-176, 2-(furan-2-ylmethyl)-6,8-di(thiophen-2-yl)imidazo[1,2-a]pyrazin-3(7H)-one], the “λmax, nm” value stood at 496 nm.

On to `Cn1cc(-c2[nH]c(-c3ccn(C)n3)cn3c(=O)c(Cc4ccco4)nc2-3)cn1` [AS-190, 2-(furan-2-ylmethyl)-6-(1-methyl-1H-pyrazol-3-yl)-8-(1-methyl-1H-pyrazol-4-yl)imidazo[1,2-a]pyrazin-3(7H)-one], for which the “λmax, nm” value stood at 496 nm.

Take `O=c1c(Cc2ccco2)nc2c(-c3cccc4ccccc34)[nH]c(-c3ccccc3)cn1-2` [AS-215, 2-(furan-2-ylmethyl)-8-(naphthalen-1-yl)-6-phenylimidazo[1,2-a]pyrazin-3(7H)-one]: the “λmax, nm” value stood at 517 nm.

On to `CN(C)c1ccc(-c2[nH]c(-c3ccccc3)cn3c(=O)c(Cc4ccco4)nc2-3)cc1` [AS-224, 8-(4-(dimethylamino)phenyl)-2-(furan-2-ylmethyl)-6-phenylimidazo[1,2-a]pyrazin-3(7H)-one], for which the “λmax, nm” value amounted to 502 nm.

As for `O=c1c(Cc2ccco2)nc2c(-c3ccsc3)[nH]c(-c3ccccc3)cn1-2` [AS-229, 2-(furan-2-ylmethyl)-6-phenyl-8-(thiophen-3-yl)imidazo[1,2-a]pyrazin-3(7H)-one], the “λmax, nm” value amounted to 496 nm.

`O=c1c(Cc2ccco2)nc2c(-c3cccs3)[nH]c(-c3ccccc3)cn1-2` [AS-236, 2-(furan-2-ylmethyl)-6-phenyl-8-(thiophen-2-yl)imidazo[1,2-a]pyrazin-3(7H)-one]: the “λmax, nm” value is reported as 514 nm.

With `N#Cc1ccc(-c2[nH]c(-c3ccccc3)cn3c(=O)c(Cc4ccco4)nc2-3)cc1` [AS-237, 4-(2-(furan-2-ylmethyl)-3-oxo-6-phenyl-3,7-dihydroimidazo[1,2-a]pyrazin-8-yl)benzonitrile], the “λmax, nm” value came out at 559 nm.

With `O=c1c(Cc2ccco2)nc2c(C#Cc3ccccc3)[nH]c(-c3ccccc3)cn1-2` [AS-242, 2-(furan-2-ylmethyl)-6-phenyl-8-(phenylethynyl)imidazo[1,2-a]pyrazin-3(7H)-one], the “λmax, nm” value came out at 517 nm.

On to `O=c1c(Cc2ccco2)nc2c(-c3ccccc3)[nH]c(-c3ccccc3)c(-c3ccccc3)n1-2` [AS-248, 2-(furan-2-ylmethyl)-5,6,8-triphenylimidazo[1,2-a]pyrazin-3(7H)-one], for which the “λmax, nm” value was 520 nm.

As for `O=c1c(Cc2ccco2)nc2c(-c3ccc4scnc4c3)[nH]c(-c3ccccc3)cn1-2` [AS-250, 8-(benzo[d]thiazol-5-yl)-2-(furan-2-ylmethyl)-6-phenylimidazo[1,2-a]pyrazin-3(7H)-one], the “λmax, nm” value was found to be 511 nm.

In the case of `Cn1cc(-c2[nH]c(-c3ccccc3)cn3c(=O)c(Cc4ccco4)nc2-3)ccc1=O` [AS-256, 2-(furan-2-ylmethyl)-8-(1-methyl-6-oxo-1,6-dihydropyridin-3-yl)-6-phenylimidazo[1,2-a]pyrazin-3(7H)-one], the “λmax, nm” value stood at 496 nm.

For `O=c1c(Cc2ccco2)nc2c(-c3ccc(F)cc3)[nH]c(-c3ccccc3)cn1-2` [AS-269, 8-(4-fluorophenyl)-2-(furan-2-ylmethyl)-6-phenylimidazo[1,2-a]pyrazin-3(7H)-one], the “λmax, nm” value was 490 nm.

`O=c1c(Cc2ccco2)nc2c(-c3cc(F)c(F)c(F)c3)[nH]c(-c3ccccc3)cn1-2` [AS-270, 2-(furan-2-ylmethyl)-6-pheny1-8-(3,4,5-trifluorophenyl)imidazo[1,2-a]pyrazin-3(7H)-one]: the “λmax, nm” value is 502 nm.

`O=c1c(Cc2ccco2)nc2c(-c3ccnc(F)c3)[nH]c(-c3ccccc3)cn1-2` [AS-271, 8-(2-fluoropyridin-4-yl)-2-(furan-2-ylmethyl)-6-phenylimidazo[1,2-a]pyrazin-3(7H)-one]: the “λmax, nm” value is reported as 532 nm.

Regarding `O=c1c(Cc2ccco2)nc2c(-c3cccnc3F)[nH]c(-c3ccccc3)cn1-2` [AS-272, 8-(2-fluoropyridin-3-yl)-2-(furan-2-ylmethyl)-6-phenylimidazo[1,2-a]pyrazin-3(7H)-one], the “λmax, nm” value stood at 508 nm.

In the case of `O=c1c(Cc2ccco2)nc2c(-c3ccc(F)nc3)[nH]c(-c3ccccc3)cn1-2` [AS-273, 8-(6-fluoropyridin-3-yl)-2-(furan-2-ylmethyl)-6-phenylimidazo[1,2-a]pyrazin-3(7H)-one], the “λmax, nm” value is 496 nm.

In the case of `N#Cc1cccc(-c2[nH]c(-c3ccccc3)cn3c(=O)c(Cc4ccco4)nc2-3)c1` [AS-274, 3-(2-(furan-2-ylmethyl)-3-oxo-6-phenyl-3,7-dihydroimidazo[1,2-a]pyrazin-8-yl)benzonitrile], the “λmax, nm” value came to 514 nm.

As for `O=c1c(Cc2ccco2)nc2c(-c3ccnc(Cl)c3)[nH]c(-c3ccccc3)cn1-2` [AS-275, 8-(2-chloropyridin-4-yl)-2-(furan-2-ylmethyl)-6-phenylimidazo[1,2-a]pyrazin-3(7H)-one], the “λmax, nm” value is recorded as 535 nm.

For the compound `O=c1c(Cc2ccco2)nc2c(-c3ccncc3)[nH]c(-c3ccccc3)cn1-2` [AS-276, 2-(furan-2-ylmethyl)-6-phenyl-8-(pyridin-4-yl)imidazo[1,2-a]pyrazin-3(7H)-one], the “λmax, nm” value is given as 523 nm.

For the compound `O=c1c(Cc2ccco2)nc2c(-c3cccnc3)[nH]c(-c3ccccc3)cn1-2` [AS-277, 2-(furan-2-ylmethyl)-6-phenyl-8-(pyridin-3-yl)imidazo[1,2-a]pyrazin-3(7H)-one], the “λmax, nm” value is on record as 517 nm.

Consider `O=c1c(Cc2ccco2)nc2c(-c3cccnc3Cl)[nH]c(-c3ccccc3)cn1-2` [AS-278, 8-(2-chloropyridin-3-yl)-2-(furan-2-ylmethyl)-6-phenylimidazo[1,2-a]pyrazin-3(7H)-one], for which the “λmax, nm” value came to 499 nm.

For the compound `O=c1c(Cc2ccco2)nc2c(-c3ccc(Cl)s3)[nH]c(-c3ccccc3)cn1-2` [AS-280, 8-(5-chlorothiophen-2-yl)-2-(furan-2-ylmethyl)-6-phenylimidazo[1,2-a]pyrazin-3(7H)-one], the “λmax, nm” value came out at 523 nm.

For `O=c1c(Cc2ccco2)nc2c(-c3sccc3Cl)[nH]c(-c3ccccc3)cn1-2` [AS-282, 8-(3-chlorothiophen-2-yl)-2-(furan-2-ylmethyl)-6-phenylimidazo[1,2-a]pyrazin-3(7H)-one], the “λmax, nm” value amounted to 505 nm.

On to `N#Cc1c(-c2ccccc2)[nH]c(-c2ccnc(F)c2)c2nc(Cc3ccco3)c(=O)n1-2` [AS-301, 8-(2-fluoropyridin-4-yl)-2-(furan-2-ylmethyl)-3-oxo-6-phenyl-3,7-dihydroimidazo[1,2-a]pyrazine-5-carbonitrile], for which the “λmax, nm” value turned out to be 529 nm.

For `O=c1c(Cc2ccco2)nc2c(-c3ccnc(F)c3)[nH]c(-c3cccs3)cn1-2` [AS-306, 8-(2-fluoropyridin-4-yl)-2-(furan-2-ylmethyl)-6-(thiophen-2-yl)imidazo[1,2-a]pyrazin-3(7H)-one], the “λmax, nm” value is recorded as 544 nm.

Regarding `Cn1c(C#N)ccc1-c1[nH]c(-c2ccccc2)cn2c(=O)c(Cc3ccco3)nc1-2` [AS-311, 5-(2-(furan-2-ylmethyl)-3-oxo-6-phenyl-3,7-dihydroimidazo[1,2-a]pyrazin-8-yl)-1-methyl-1H-pyrrole-2-carbonitrile], the “λmax, nm” value came to 505 nm.

Take `O=c1c(Cc2ccco2)nc2c(-c3ccnc(Br)c3)[nH]c(-c3ccccc3)cn1-2` [AS-314, 8-(2-bromopyridin-4-yl)-2-(furan-2-ylmethyl)-6-phenylimidazo[1,2-a]pyrazin-3(7H)-one]: the “λmax, nm” value is given as 538 nm.

For the compound `Nc1ccc(-c2cn3c(=O)c(Cc4ccco4)nc-3c(-c3ccnc4ccccc34)[nH]2)cc1` [AS-330, 6-(4-aminopheny1)-2-(furan-2-ylmethyl)-8-(quinolin-4-yl)imidazo[1,2-a]pyrazin-3(7H)-one], the “λmax, nm” value was determined as 583 nm.

On to `N#Cc1ccc(-c2[nH]c(-c3ccc(N)cc3)cn3c(=O)c(Cc4ccco4)nc2-3)s1` [AS-332, 5-(6-(4-aminophenyl)-2-(furan-2-ylmethyl)-3-oxo-3,7-dihydroimidazo[1,2-a]pyrazin-8-yl)thiophene-2-carbonitrile], for which the “λmax, nm” value is reported as 598 nm.

Regarding `N#Cc1ccc(-c2[nH]c3c(n4c(=O)c(Cc5ccco5)nc2-4)CCc2ccccc2-3)s1` [AS-340, 5-(2-(furan-2-ylmethyl)-3-oxo-3,5,6,11-tetrahydrobenzo[f]imidazo[1,2-a]quinoxalin-12-yl)thiophene-2-carbonitrile], the “λmax, nm” value amounted to 574 nm.

Take `O=c1c(Cc2ccco2)nc2c(-c3ccnc4ccccc34)[nH]c3c(n1-2)CCc1ccccc1-3` [AS-341, 2-(furan-2-ylmethyl)-12-(quinolin-4-yl)-5,11-dihydrobenzo[f]imidazo[1,2-a]quinoxalin-3(6H)-one]: the “λmax, nm” value was 583 nm.

As for `O=c1c(Cc2ccco2)nc2c(-c3ccnc(Cl)c3)[nH]c3c(n1-2)CCc1ccccc1-3` [AS-342, 12-(2-chloropyridin-4-yl)-2-(furan-2-ylmethyl)-5,11-dihydrobenzo[f]imidazo[1,2-a]quinoxalin-3(6H)-one], the “λmax, nm” value turned out to be 538 nm.

`Nc1cccc(-c2cn3c(=O)c(Cc4ccco4)nc-3c(Cc3ccccc3)[nH]2)c1` [JRW-0438, 6-(3-aminophenyl)-8-benzyl-2-(furan-2-ylmethyl)imidazo[1,2-a]pyrazin-3(7H)-one]: the “λmax, nm” value came out at 487 nm.
